Target: Metabotropic glutamate receptor 4 (Homo sapiens, UniProt Q14833)
Test: Receptor Activity Assay
Method: The disclosed compounds and compositions can be evaluated for their ability to act as a potentiator of metabotropic glutamate receptor activity, in particular mGluR4 activity, by any suitable known methodology known in the art. For example, Chinese Hamster Ovary (CHO) cells transfected with human mGluR4 or HEK cells co-transfected with rat mGluR4 and the G-protein regulated Inwardly Rectifying Potassium channel (GIRK) were plated in clear bottom assay plates for assay in a Hamamatsu FDSS Fluorometric Plate Reader. The cells were loaded with either a Ca2+-sensitive fluorescent dye or the thallium responsive dye and the plates were washed and placed into a suitable kinetic plate reader. For human mGluR4 assays, a fluorescence baseline was established for 3-5 seconds, the disclosed compounds were then added to the cells, and the response in cells was measured.

Chain of Metabotropic glutamate receptor 4 (Q14833 whole entry): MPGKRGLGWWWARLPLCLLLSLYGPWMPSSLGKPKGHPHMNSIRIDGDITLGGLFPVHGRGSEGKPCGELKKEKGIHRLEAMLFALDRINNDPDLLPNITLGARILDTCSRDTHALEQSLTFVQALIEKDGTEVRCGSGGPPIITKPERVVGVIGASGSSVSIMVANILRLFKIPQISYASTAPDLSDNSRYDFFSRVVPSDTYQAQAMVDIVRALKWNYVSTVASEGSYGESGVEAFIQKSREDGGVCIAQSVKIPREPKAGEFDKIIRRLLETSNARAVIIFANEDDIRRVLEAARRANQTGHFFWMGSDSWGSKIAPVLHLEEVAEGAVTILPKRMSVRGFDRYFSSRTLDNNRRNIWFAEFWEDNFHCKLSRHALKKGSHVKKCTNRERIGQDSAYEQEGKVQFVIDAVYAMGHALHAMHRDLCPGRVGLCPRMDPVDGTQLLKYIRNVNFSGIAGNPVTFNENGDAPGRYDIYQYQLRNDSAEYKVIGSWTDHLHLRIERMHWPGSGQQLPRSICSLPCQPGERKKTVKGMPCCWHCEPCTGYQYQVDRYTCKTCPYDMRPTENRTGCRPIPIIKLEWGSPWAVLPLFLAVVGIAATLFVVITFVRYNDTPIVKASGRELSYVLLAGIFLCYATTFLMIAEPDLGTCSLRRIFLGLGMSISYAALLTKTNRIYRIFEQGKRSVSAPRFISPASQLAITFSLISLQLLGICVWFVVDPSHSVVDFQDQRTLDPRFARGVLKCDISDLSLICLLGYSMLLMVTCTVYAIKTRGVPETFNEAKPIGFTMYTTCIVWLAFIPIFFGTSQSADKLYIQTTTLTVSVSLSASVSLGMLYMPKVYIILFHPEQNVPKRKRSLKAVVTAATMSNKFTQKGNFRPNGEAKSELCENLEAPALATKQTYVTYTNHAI

How did the EC50 turn out when `CC(C)c1nc(NC(=O)c2ccccn2)sc1S(=O)(=O)Cc1ccc(F)cc1F` [US9192603, 65] was run?
Its EC50 is greater than 10 µM.
